Measured values taken from patent US8933029B2, “Antimicrobial and anti-inflammatory peptides” (Carrus Capital Corporation, priority 2001, dated 2015).
Marks after values point to notes of the source that are not given here. Ends that are not written are not given here.

Assays:
[1] = system: TPA-induced ear edema; assay: TPA ear edema model; conditions: for Topical Dose (% change vs. vehicle) 5 0% / Topical Dose (% change vs. vehicle) 0.1% / Topical Dose (% change vs. vehicle) 1.0%: ear biopsy weight six hours after TPA; for Topical Dose (% change vs. vehicle) 0.1%: topical 0.1%; for Topical Dose (% change vs. vehicle) 1.0%: topical 1.0%
[2] = system: IFNγ; assay: Inhibition of cytokine production in PHA-activated PBLs (ELISA); assay type: cell-based; conditions: human PBLs, 10 μg/ml PHA, 48 hours, supernatant ELISA
Description: (§1) Briefly, human PBLs are collected from a subject and plated at 10^6 cells/ml in serum free lymphocyte growth medium, stimulated with 10 μg/ml phytohemagglutinin (PHA) in the presence or absence of the candidate peptide. The PBLs are incubated at 37° C. at 5% CO2 for 48 h, at which point the supernatants were collected. An ELISA is performed on the supernatants to detect a cytokine of interest (e.g., IL-1, TNF-α, IFN-γ) and the cells are incubated for another 72 h to measure proliferation (see, e.g., Sigusch et al., J. Periodontol. 69:1098, 1998).
(§2) Human peripheral blood lymphocytes (PBLs) were collected from a healthy adult […] and plated at 10^6 cells/ml in serum free lymphocyte growth media in a 96-well plate. The PBLs were stimulated with 10 μg/ml PHA in the presence or absence of test sample and incubated at 37° C. at 5% CO2 for 48 hours. Collected and pooled supernatants were stored at −20° C., then assayed with commercially available ELISA kits (Endogen and Biosource) and assayed for viability with LDH (Bochringer Mannheim). The cells remaining after supernatant removal were returned to the incubator and proliferation was determined at 72 hours by using AlamarBlue (Alamar Bioscience). Compounds were tested at 1, 10, 100 and 1000 μg/ml. The peptides were effective at inhibiting cytokine production and PBL proliferation (Table 4), which indicates these peptides can function as anti-inflammatory agents.

[3] = system: IL-10; assay: as above; assay type: cell-based; conditions: human PBLs, 10 μg/ml PHA, 48 hours, supernatant ELISA
Description: as §1, §2

[4] = system: IL-12; assay: as above; assay type: cell-based; conditions: human PBLs, 10 μg/ml PHA, 48 hours, supernatant ELISA
Description: as §1, §2

[5] = system: IL-1α; assay: as above; assay type: cell-based; conditions: human PBLs, 10 μg/ml PHA, 48 hours, supernatant ELISA
Description: as §1, §2

[6] = system: IL-2; assay: as above; assay type: cell-based; conditions: human PBLs, 10 μg/ml PHA, 48 hours, supernatant ELISA
Description: as §1, §2

[7] = system: IL-4; assay: as above; assay type: cell-based; conditions: human PBLs, 10 μg/ml PHA, 48 hours, supernatant ELISA
Description: as §1, §2

[8] = system: IL-6; assay: as above; assay type: cell-based; conditions: human PBLs, 10 μg/ml PHA, 48 hours, supernatant ELISA
Description: as §1, §2

[9] = system: TNFα; assay: as above; assay type: cell-based; conditions: human PBLs, 10 μg/ml PHA, 48 hours, supernatant ELISA
Description: as §1, §2

[10] = system: oxazolone contact hypersensitivity (ear inflammation); assay: Oxazolone contact hypersensitivity model; assay type: in vivo, CD-1 mice; conditions: Dosage of 0.1%, applied to ear one hour after oxazolone challenge, ear punch weight after 24 h, 70% EtOH/30% propylene glycol vehicle
Description: Briefly, a 3.0% (w/v) solution of oxazolone in acetone/corn oil (5:1) is applied topically to the skin on the shaved abdomens of mice of approximately the same weight and approximately the same age on day 0. […] Twenty-four hours later a dermal biopsy punch of the treated ear is taken and weighed.
CD-1 mice are treated with 3% oxazolone (Sigma) (30 mg/ml) in corn oil:acetone on a shaved abdomen. All solutions are sonicated for 7 minutes. Five days later, the mice are challenged with a 2% oxazolone (20 mg/ml) in acetone on the left ear, with the right ear being left untreated (control). One hour after challenge, the candidate peptide in a 70% EtOH/30% propylene glycol formulation (vehicle) was applied to the left ear, with the right ear being left untreated. After 24 h, 7 mm ear punches are taken from each ear of the mice. The ear punches are placed on a scale and the difference between the treated and untreated ears were compared. The percent inhibition of inflammation was calculated by comparing the mean of each treated group to the control group. The positive control is hydrocortisone (a known anti-inflammatory agent). Most of the indolicidin peptides inhibited inflammation as well as hydrocortisone.

[11] = topical 5 0%, formulated in 50% ethanol/5 mM lactate buffer (*)
[12] = formulated in 50% ethanol/5 mM lactate buffer (*)
[13] = topical 5.0%, formulated in 95% ethanol

## I L E E W P W W P W E E E (ILEEWPWWPWEEE-{CN}) [Peptide 11B11CN]
[1]; [11]
  Topical Dose (% change vs. vehicle) 5 0%: −64* %

## RLVVWVVWRR-NH2 [Peptide 11F66CN, R L V V W V V W R R]
[2]
  IC50 IFNγ: 125 µg/mL
[3]
  IC50 IL-10: 40 µg/mL
[4]
  IC50 IL-12: 280 µg/mL
[5]
  IC50 IL-1α: >1000 µg/mL
[6]
  IC50 IL-2: 480 µg/mL
[7]
  IC50 IL-4: >1000 µg/mL
[8]
  IC50 IL-6: 1 µg/mL
[9]
  IC50 TNFα: 110 µg/mL
[10]
  % Inhibition of Inflammation: 79.85%
[1]; [12]
  Topical Dose (% change vs. vehicle) 0.1%: −17* %
  Topical Dose (% change vs. vehicle) 1.0%: −64* %
[1]; [11]
  Topical Dose (% change vs. vehicle) 5 0%: −81* %

## R L G G G G G G R R (RLGGGGGGRR-{CN}) [Peptide 11F83CN]
[1]; formulated in 95% ethanol
  Topical Dose (% change vs. vehicle) 1.0%: −28%

## W (Orn) W W (Orn) P (Orn) W (Orn) W P (Orn) W [Peptide 11J67CN]
[1]; [12]
  Topical Dose (% change vs. vehicle) 1.0%: −33* %
[1]; [11]
  Topical Dose (% change vs. vehicle) 5 0%: −66* %

## WRWWKVAWRWVKW-NH2 [Peptide 11J30CN, W R W W K V A W R W V K W]
[2]
  IC50 IFNγ: 28 µg/mL
[3]
  IC50 IL-10: 33 µg/mL
[4]
  IC50 IL-12: 26 µg/mL
[5]
  IC50 IL-1α: 25 µg/mL
[6]
  IC50 IL-2: >1000 µg/mL
[7]
  IC50 IL-4: 65 µg/mL
[8]
  IC50 IL-6: 4 µg/mL
[9]
  IC50 TNFα: 36 µg/mL
[10]
  % Inhibition of Inflammation: 94.15%
[1]; formulated in 95% ethanol
  Topical Dose (% change vs. vehicle) 1.0%: −26%

## H-GWRFLKLAWRFLKL-OH [Peptide 11J97]
[1]; formulated in 95% ethanol
  Topical Dose (% change vs. vehicle) 0.1%: +33%
  Topical Dose (% change vs. vehicle) 1.0%: −29%
[1]; [13]
  Topical Dose (% change vs. vehicle) 5 0%: −49%

## H-L(Orn)FL(Orn)W AF(Orn)L W(Orn)L-CN [Peptide 11J84CN]
[1]; formulated in 95% ethanol
  Topical Dose (% change vs. vehicle) 0.1%: −14%
  Topical Dose (% change vs. vehicle) 1.0%: −35%

## WRWWKPKWRWPKW-NH2 [Peptide 11J02CN, W R W W K P K W R W P K W]
[2]
  IC50 IFNγ: 45 µg/mL
[3]
  IC50 IL-10: 23 µg/mL
[4]
  IC50 IL-12: 34 µg/mL
[5]
  IC50 IL-1α: 7 µg/mL
[6]
  IC50 IL-2: >1000 µg/mL
[7]
  IC50 IL-4: 115 µg/mL
[8]
  IC50 IL-6: 510 µg/mL
[9]
  IC50 TNFα: 34 µg/mL
[10]
  % Inhibition of Inflammation: 58.12%
[1]; formulated in 95% ethanol
  Topical Dose (% change vs. vehicle) 1.0%: −44%

## A-ILTWPWWPWTTT-CN (not fully specified; N-terminal A, C-terminal nitrile/amide) [Peptide 11B24ACN]
[1]; [13]
  Topical Dose (% change vs. vehicle) 5 0%: −75%

## I L T W P W W P W T T T (ILTWPWWPWTTT-{CN}) [Peptide 11B24CN]
[1]; formulated in 95% ethanol
  Topical Dose (% change vs. vehicle) 1.0%: −32%
[1]; [13]
  Topical Dose (% change vs. vehicle) 5 0%: −64%

## F R F F K P K F R F P K F (FRFFKPKFRFPKF-{CN}) [Peptide 11J33CN]
[1]; formulated in 95% ethanol
  Topical Dose (% change vs. vehicle) 1.0%: −52%

## Y R Y Y K P K Y R Y P K Y (YRYYKPKYRYPKY-{CN}) [Peptide 11J32CN]
[1]; formulated in 95% ethanol
  Topical Dose (% change vs. vehicle) 1.0%: −30%

## C[C@@H]1C[C@H]2[C@@H]3CCC4=CC(=O)C=C[C@]4(C)[C@@]3(F)[C@@H](O)C[C@]2(C)[C@@]1(O)C(=O)CO [Dexamethasone, dexamethasone, reference compound]
[1]; systemic 5 mg/kg
  Systemic Dose (% change vs. vehicle) 5 mg/kg: >−80%
[1]; [12]
  Topical Dose (% change vs. vehicle) 0.1%: >−90* %
[1]; formulated in 95% ethanol
  Topical Dose (% change vs. vehicle) 0.1%: −92%

## RLWVWWVWRR-NH2 [Peptide 11F17CN, R L W V W W V W R R]
[2]
  IC50 IFNγ: 93 µg/mL
[3]
  IC50 IL-10: 18 µg/mL
[4]
  IC50 IL-12: 120 µg/mL
[5]
  IC50 IL-1α: 45 µg/mL
[6]
  IC50 IL-2: >1000 µg/mL
[7]
  IC50 IL-4: 220 µg/mL
[8]
  IC50 IL-6: 500 µg/mL
[9]
  IC50 TNFα: 70 µg/mL
[10]
  % Inhibition of Inflammation: 71.60%

## H-ILRWVWRIL-CN (H-ILRWVWRIL-{CN}) [Peptide 11J148CN]
[1]; formulated in 95% ethanol
  Topical Dose (% change vs. vehicle) 0.1%: −33%
  Topical Dose (% change vs. vehicle) 1.0%: −74%

## R L W W Q Q W W R R (RLWWQQWWRR-{CN}) [Peptide 11F60CN]
[1]; formulated in 95% ethanol
  Topical Dose (% change vs. vehicle) 1.0%: −41%

## H-RILRW(Aib)WRILR-CN [Peptide 11J157CN]
[1]; formulated in 95% ethanol
  Topical Dose (% change vs. vehicle) 0.1%: +5%
  Topical Dose (% change vs. vehicle) 1.0%: −55%
